Data taken from patent US20250206727A1, “HETEROCYCLIC SUBSTITUTED AROMATIC COMPOUND, PREPARATION METHOD THEREFOR, HERBICIDAL COMPOSITION AND APPLICATION” (QINGDAO KINGAGROOT CHEMICAL COMPOUND CO., LTD., priority 2022, published 2025).

What was measured:
Assay in all cases: Post-emergence test on weeds (greenhouse, spray at 2-3 leaf stage)
Assay type in all cases: in vivo
Design in all cases: key: Level 10: completely dead; Level 9: growth control rate greater than or equal to 90% and less than 100%; Level 8: growth control rate greater than or equal to 80% and less than 90%; Level 7: growth control rate greater than or equal to 70% and less than 80%; Level 6: growth control rate greater than or equal to 60% and less than 70%; Level 5: growth control rate greater than or equal to 50% and less than 60%; Level 4: growth control rate greater than or equal to 40% and less than 50%; Level 3: growth control rate greater than or equal to 30% and less than 40%; Level 2: growth control rate greater than or equal to 20% and less than 30%; Level 1: growth control rate less than 20%; Level 0: no effect
Settings in all cases: 60 g a.i./ha, 3 weeks after application
[1] = system: Setaria viridis
Procedure, shortened: (§1)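 Greenhouse pot-grown weeds were sprayed by spray tower at the 2-3 leaf stage, about two weeks after sowing, with acetone/Tween 80 solutions plus 1.5 L/ha methyl oleate EC synergist at 500, 250, […], 15 and 7.5 g a.i./ha. Fresh-weight growth control was scored 0-10 after 3 weeks, triplicate averaged.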

[2] = system: Echinochloa crus-galli
Procedure, shortened: as §1

[3] = system: Digitaria sanguinalis
Procedure, shortened: as §1

[4] = system: Abutilon theophrasti
Procedure, shortened: as §1

[5] = system: Veronica polita
Procedure, shortened: as §1

[6] = system: Amaranthus retroflexus
Procedure, shortened: as §1

COCCOC(=O)C1ON=C(c2cc(-c3ncc(C(F)(F)F)cc3Cl)c(F)cc2Cl)O1 (stereo not drawn) [Compound 112]
10: activity level (fresh weight growth control rate), Setaria viridis [1] | activity level (fresh weight growth control rate), Echinochloa crus-galli [2] | activity level (fresh weight growth control rate), Digitaria sanguinalis [3] | activity level (fresh weight growth control rate), Abutilon theophrasti [4] | activity level (fresh weight growth control rate), Veronica polita [5] | activity level (fresh weight growth control rate), Amaranthus retroflexus [6]

COCCCOC(=O)C1(C)ON=C(c2cc(-c3ncc(C(F)(F)F)cc3Cl)c(F)cc2Cl)O1 (stereo not drawn) [Compound 114]
10: activity level (fresh weight growth control rate), Setaria viridis [1] | activity level (fresh weight growth control rate), Echinochloa crus-galli [2] | activity level (fresh weight growth control rate), Digitaria sanguinalis [3] | activity level (fresh weight growth control rate), Abutilon theophrasti [4] | activity level (fresh weight growth control rate), Veronica polita [5] | activity level (fresh weight growth control rate), Amaranthus retroflexus [6]

COCCCOC(=O)C1ON=C(c2cc(-c3ncc(C(F)(F)F)cc3Cl)c(F)cc2Cl)O1 (stereo not drawn) [Compound 115]
10: activity level (fresh weight growth control rate), Setaria viridis [1] | activity level (fresh weight growth control rate), Echinochloa crus-galli [2] | activity level (fresh weight growth control rate), Digitaria sanguinalis [3] | activity level (fresh weight growth control rate), Abutilon theophrasti [4] | activity level (fresh weight growth control rate), Veronica polita [5] | activity level (fresh weight growth control rate), Amaranthus retroflexus [6]

CC(C#N)OC(=O)C1(C)ON=C(c2cc(-c3ncc(C(F)(F)F)cc3Cl)c(F)cc2Cl)O1 (stereo not drawn) [Compound 116]
10: activity level (fresh weight growth control rate), Setaria viridis [1] | activity level (fresh weight growth control rate), Echinochloa crus-galli [2] | activity level (fresh weight growth control rate), Digitaria sanguinalis [3] | activity level (fresh weight growth control rate), Abutilon theophrasti [4] | activity level (fresh weight growth control rate), Veronica polita [5] | activity level (fresh weight growth control rate), Amaranthus retroflexus [6]

CC1(C(=O)OCC2CC2)ON=C(c2cc(-c3ncc(C(F)(F)F)cc3Cl)c(F)cc2Cl)O1 (stereo not drawn) [Compound 126]
10: activity level (fresh weight growth control rate), Setaria viridis [1] | activity level (fresh weight growth control rate), Echinochloa crus-galli [2] | activity level (fresh weight growth control rate), Digitaria sanguinalis [3] | activity level (fresh weight growth control rate), Abutilon theophrasti [4] | activity level (fresh weight growth control rate), Veronica polita [5] | activity level (fresh weight growth control rate), Amaranthus retroflexus [6]

CC1(C(=O)OC2CCCC2)ON=C(c2cc(-c3ncc(C(F)(F)F)cc3Cl)c(F)cc2Cl)O1 (stereo not drawn) [Compound 127]
10: activity level (fresh weight growth control rate), Setaria viridis [1] | activity level (fresh weight growth control rate), Echinochloa crus-galli [2] | activity level (fresh weight growth control rate), Digitaria sanguinalis [3] | activity level (fresh weight growth control rate), Abutilon theophrasti [4] | activity level (fresh weight growth control rate), Veronica polita [5] | activity level (fresh weight growth control rate), Amaranthus retroflexus [6]
